{
  "source": "patent US10920265B2",
  "about": "“Compounds and methods for detection of enzymes that remove methyl succinyl groups from epsilon-amino lysine moieties” (Enzo Life Sciences, Inc., priority 2011, dated 2021)",
  "key": {"SIRT6": {"biological_target": "T1, SIRT6 (Homo sapiens, UniProt Q8N6T7)", "T1 construct": "purchased BPS Bioscience 50017", "T1 sequence (Q8N6T7 whole entry, the tested form may be a part)": "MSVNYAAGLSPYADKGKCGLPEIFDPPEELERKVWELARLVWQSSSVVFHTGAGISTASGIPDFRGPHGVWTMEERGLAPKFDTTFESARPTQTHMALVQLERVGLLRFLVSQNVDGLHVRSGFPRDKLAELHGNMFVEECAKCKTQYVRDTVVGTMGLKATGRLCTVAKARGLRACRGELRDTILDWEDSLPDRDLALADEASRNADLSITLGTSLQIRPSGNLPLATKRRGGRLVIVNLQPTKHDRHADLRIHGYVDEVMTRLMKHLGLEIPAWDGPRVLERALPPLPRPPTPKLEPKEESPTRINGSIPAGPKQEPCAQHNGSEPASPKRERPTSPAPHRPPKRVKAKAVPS", "assay": "Sirtuin activity with fluorogenic lysyl substrates", "type": "biochemical", "details": "50 μM substrate, 500 μM NAD^+", "procedure": "(§1) The Ac-Lys(Succ.)-AMC substrate was tested for activity with recombinant preparations of human HDACs 1-11, SIRTs 1-4, 6 and 7, a complex of HDAC3 with a fragment of the activating protein NCOR1 and with HeLa nuclear extract, a rich source of active HDACs in their native multiprotein complexes.\n(§2) Enzyme and extract catalog products obtained from ENZO Life Sciences included: HDAC1 (Cat. # BML-SE456), HDAC2 (Cat. # BML-SE500), HDAC3 (Cat. # BML-SE507), HDAC3/NCOR1 Complex (Cat. # BML-SE515), HDAC6 (Cat. # BML-SE508), HDAC8 (Cat. # BML-SE145), HDAC10 (Cat. # BML-SE559), HDAC11 (Cat. # BML-SE560), SIRT1 (Cat. # BML-SE239), SIRT2 (Cat. # BML-SE251), SIRT3 (Cat. # BML-SE270), SIRT5 (Cat. # BML-SE555), HeLa Nuclear Extract (Cat. # BML-KI140), Trypsin (“Fluor de Lys Developer”, 80 mg/ml bovine trypsin in 1 mM HCl, Cat. # BML-KI105 or “Fluor de Lys Developer II”, 80 mg/ml bovine trypsin in 1 mM HCl, Cat. # BML-KI176). […] Enzymes obtained from BPS Bioscience, San Diego, Calif. included: human recombinants SIRT4 (Cat. #50015), SIRT6 (Cat. #50017), SIRT7 (Cat. #50018). HeLa whole cell extract was obtained from HeLa S3 cells (American Type Culture Collection) grown in a medium of MEM/10% fetal bovine serum (FBS) as follows: 1) 9×10^6 cells were suspended by trypsinization, followed by a phosphate buffered saline (PBS) rinse and addition of MEM/10% FBS (1.5 mL) to eliminate trypsin before transfer to a 15 mL conical tube; 2) cells were sedimented by a low speed centrifugation, gently resuspended in PBS and sedimented again and supernatant removed; 3) lysis was induced by resuspension in 0.8 mL 50 mM Tris/HCl, pH 8.0 with the non-denaturing detergent NP-40 (0.5%), placement on ice and brief vortexing every 5 min. for 30 min.; 4) 100 μl of a concentrated salt solution in the same buffer was added in order to bring the final buffer composition to 50 mM Tris/C1, pH 8.0, 137 mM NaCl, 2.7 mM KCl, 1 mM MgCl2, 0.5% NP-40; 5) particulate matter was cleared by centrifugation and the cleared lysate supernatant transferred to a 1.5 mL Eppendorf tube and stored on ice until use in activity assays.\n(§3) Assays were performed at 37° C., according to the manufacturer's instructions for the “SIRT1 Fluorometric Drug Discovery Kit” from Enzo Life Sciences (ELS) (Cat. # BML-AK555), with exceptions described as follows. Where indicated in figures and text, SIRT1 enzyme was replaced with another enzyme or extract and the “Fluor de Lys-SIRT1 Substrate” (Ac-Arg-His-Lys-Lys(Ac)-AMC; ELS Cat. # BML-KI-177) was replaced with another acetylated, succinylated or trifluoroacetylated substrate."}, "HDAC6": {"biological_target": "T2, HDAC6 (Homo sapiens, UniProt Q9UBN7)", "T2 construct": "purchased ENZO Life Sciences BML-SE508", "T2 sequence (Q9UBN7 whole entry)": "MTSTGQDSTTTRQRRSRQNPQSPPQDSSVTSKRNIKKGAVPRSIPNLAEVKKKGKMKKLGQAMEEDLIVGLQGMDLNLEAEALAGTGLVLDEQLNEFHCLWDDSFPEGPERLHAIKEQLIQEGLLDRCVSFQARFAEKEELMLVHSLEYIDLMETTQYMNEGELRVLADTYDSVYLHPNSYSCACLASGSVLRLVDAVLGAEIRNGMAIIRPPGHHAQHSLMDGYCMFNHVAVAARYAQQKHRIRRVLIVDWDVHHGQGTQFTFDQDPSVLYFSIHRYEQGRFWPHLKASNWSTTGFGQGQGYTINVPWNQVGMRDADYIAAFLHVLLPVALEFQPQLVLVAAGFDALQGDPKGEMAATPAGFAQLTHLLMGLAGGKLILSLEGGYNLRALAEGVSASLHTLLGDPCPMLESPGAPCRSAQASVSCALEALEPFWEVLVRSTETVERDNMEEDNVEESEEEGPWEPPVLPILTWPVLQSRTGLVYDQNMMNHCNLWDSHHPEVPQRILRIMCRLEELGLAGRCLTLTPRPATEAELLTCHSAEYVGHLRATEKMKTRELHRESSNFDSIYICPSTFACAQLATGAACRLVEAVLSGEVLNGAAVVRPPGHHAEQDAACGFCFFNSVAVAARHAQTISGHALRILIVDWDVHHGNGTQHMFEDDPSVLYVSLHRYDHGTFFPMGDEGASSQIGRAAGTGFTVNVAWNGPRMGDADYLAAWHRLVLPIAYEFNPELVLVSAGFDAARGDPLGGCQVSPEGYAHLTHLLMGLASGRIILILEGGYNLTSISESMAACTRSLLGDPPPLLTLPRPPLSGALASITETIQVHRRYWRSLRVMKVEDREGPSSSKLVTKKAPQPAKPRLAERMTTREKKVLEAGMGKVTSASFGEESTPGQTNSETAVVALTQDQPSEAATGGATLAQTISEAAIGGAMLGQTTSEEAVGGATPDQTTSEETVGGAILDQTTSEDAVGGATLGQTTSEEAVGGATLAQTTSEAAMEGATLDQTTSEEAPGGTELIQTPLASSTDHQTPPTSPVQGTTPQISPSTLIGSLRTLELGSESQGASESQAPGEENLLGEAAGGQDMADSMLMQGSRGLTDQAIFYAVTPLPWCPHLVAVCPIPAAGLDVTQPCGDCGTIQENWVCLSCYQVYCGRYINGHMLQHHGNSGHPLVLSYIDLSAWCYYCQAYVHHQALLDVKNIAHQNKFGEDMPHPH", "assay": "HDAC activity with fluorogenic lysyl substrates", "type": "biochemical", "details": "50 μM substrate", "in_short": "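Fluorescence of AMC freed by trypsin after deacylation gave the activity read-out. Reactions held recombinant human HDAC or SIRT enzymes, or HeLa nuclear or whole-cell extract, with acylated lysyl-AMC substrates at 37 °C, following SIRT1 kit instructions.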"}, "HeLa cells": {"test_system": "HeLa cells", "assay": "Intact HeLa cell desuccinylation/deacetylation assay", "type": "cell-based, human", "details": "200 μM substrate in medium, four hours", "procedure": "HeLa cells were cultured to 95% confluence in the wells of ½-volume 96-well plates. […] After the indicated time, cells were lysed with detergent and trypsin added to release AMC from desuccinylated or deacetylated substrate and then fluorescence read (Ex.360 nm/Em. 460 nm). For “0 hr.” samples, substrate, inhibitors, lysis buffer and trypsin were added simultaneously. Bars represent the mean of three determinations and the error bars the Standard Deviation from that mean. Statistically significant differences between the fluorescences of “4 hr.” and “0 hr.” samples (Student's t-test) are indicated by asterisks as follows: *,p<0.02; **, p<0.002.\nAn assay employing Ac-Lys(Ac.)-AMC to measure the HDAC and sirtuin deacetylase activity of intact cultured cells has been described (Howitz, K. T. et al. Nature 425, 191-196 (2003); Product Manual of Enzo Life Sciences Cat. # BML-AK-503, “HDAC Fluorimetric Cellular Activity Assay Kit”, Appendix F). Ac-Lys(Ac)-AMC is added to the culture medium, enters the cells and is deacetylated by HDACs and sirtuins in their native intracellular context. Measurement of the amount of Ac-Lys-AMC produced by intracellular deacetylation is then accomplished by detergent lysis of the cells and release of the AMC fluorophore by trypsin. We therefore investigated whether Ac-Lys(Succ.)-AMC could be used to measure intracellular desuccinylation activity, in a similar fashion, with cultured HeLa cells. […] These latter, deacetylation results are consistent with previous observations made with this assay system (see Howitz, K. T. et al. Nature 425, 191-196 (2003) and Appendix F).\nAssays (FIG. 10) were performed according to the manufacturer's instructions for the ““HDAC Fluorometric Cellular Activity Assay Kit” (ELS Cat. # BML-AK503), with exceptions described as follows. Where indicated the “Fluor de Lys Substrate” (Ac-Lys(Ac.)-AMC; ELS Cat. # BML-KI104) was replaced with Ac-Lys(Succ.)-AMC (1)."}, "SIRT4": {"biological_target": "T3, SIRT4 (Homo sapiens, UniProt Q9Y6E7)", "T3 construct": "purchased BPS Bioscience 50015", "T3 sequence (Q9Y6E7 29-314)": "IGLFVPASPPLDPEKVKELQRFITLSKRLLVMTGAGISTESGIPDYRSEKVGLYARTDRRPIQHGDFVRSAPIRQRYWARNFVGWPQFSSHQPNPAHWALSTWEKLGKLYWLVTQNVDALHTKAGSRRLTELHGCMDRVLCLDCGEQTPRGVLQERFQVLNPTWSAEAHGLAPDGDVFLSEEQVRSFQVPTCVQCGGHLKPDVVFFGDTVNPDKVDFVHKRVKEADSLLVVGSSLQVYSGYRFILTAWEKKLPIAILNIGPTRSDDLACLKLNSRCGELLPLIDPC", "assay": "Sirtuin activity with fluorogenic lysyl substrates", "type": "biochemical", "details": "50 μM substrate, 500 μM NAD^+", "procedure": "as §1, §2, §3"}, "SIRT2": {"biological_target": "T4, SIRT2 (Homo sapiens, UniProt Q8IXJ6)", "T4 sequence (Q8IXJ6 1-389)": "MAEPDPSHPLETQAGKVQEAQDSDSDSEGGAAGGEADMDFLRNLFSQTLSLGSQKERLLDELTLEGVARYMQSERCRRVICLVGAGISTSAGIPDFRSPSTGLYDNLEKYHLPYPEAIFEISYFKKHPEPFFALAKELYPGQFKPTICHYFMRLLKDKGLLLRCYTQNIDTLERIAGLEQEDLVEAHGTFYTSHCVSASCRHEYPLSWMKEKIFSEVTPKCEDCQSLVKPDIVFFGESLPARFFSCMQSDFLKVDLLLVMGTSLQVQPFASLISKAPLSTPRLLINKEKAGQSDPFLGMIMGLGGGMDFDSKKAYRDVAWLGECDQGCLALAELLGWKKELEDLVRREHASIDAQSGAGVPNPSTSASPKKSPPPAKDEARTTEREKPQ", "assay": "Sirtuin activity with fluorogenic lysyl substrates", "type": "biochemical", "details": "50 μM substrate, 500 μM NAD^+", "procedure": "as §1, §2, §3"}, "HDAC4": {"test_system": "HDAC4", "assay": "HDAC activity with fluorogenic lysyl substrates", "type": "biochemical, human", "details": "50 μM substrate", "procedure": "as §1\nEnzyme and extract catalog products obtained from ENZO Life Sciences included: HDAC1 (Cat. # BML-SE456), HDAC2 (Cat. # BML-SE500), HDAC3 (Cat. # BML-SE507), HDAC3/NCOR1 Complex (Cat. # BML-SE515), HDAC6 (Cat. # BML-SE508), HDAC8 (Cat. # BML-SE145), HDAC10 (Cat. # BML-SE559), HDAC11 (Cat. # BML-SE560), SIRT1 (Cat. # BML-SE239), SIRT2 (Cat. # BML-SE251), SIRT3 (Cat. # BML-SE270), SIRT5 (Cat. # BML-SE555), HeLa Nuclear Extract (Cat. # BML-KI140), Trypsin (“Fluor de Lys Developer”, 80 mg/ml bovine trypsin in 1 mM HCl, Cat. # BML-KI105 or “Fluor de Lys Developer II”, 80 mg/ml bovine trypsin in 1 mM HCl, Cat. # BML-KI176). […] Enzymes obtained from BPS Bioscience, San Diego, Calif. included: human recombinants SIRT4 (Cat. #50015), SIRT6 (Cat. #50017), SIRT7 (Cat. #50018). […]"}},
  "note": "*: point of attachment. AMC = Cc1cc(=O)oc2cc(N*)ccc12",
  "data": [
    {"compound": "COC(=O)CCC(=O)NCCCC[C@H](NC(C)=O)C(=O)Nc1ccc2c(C)cc(=O)oc2c1", "note": "[Compound 5, N—(N^α-acetyl-L-Lysine(N^ε-methyl succinyl))-AMC]", "values": [
      {"measurement": "Activity", "setting": "SIRT6", "value": 0.006, "unit": "pmol/min/µg"}
    ]},
    {"compound": "Ac-Arg-His-Lys-Lys(ε-acetyl)-AMC (Ac-RHKK(Ac)-{AMC}; SMILES CC(=O)NCCCC[C@H](NC(=O)[C@H](CCCCN)NC(=O)[C@H](Cc1c[nH]cn1)NC(=O)[C@H](CCCNC(=N)N)NC(C)=O)C(=O)Nc1ccc2c(C)cc(=O)oc2c1) [Ac-RHKK(Ac)-AMC, p53 peptide fluorogenic deacetylase substrate, Cat. # BML-KI177, reference compound]", "values": [
      {"measurement": "Activity (pmol/min/μg)", "setting": "SIRT6", "value": "Ac-RHKK(Ac)-AMC/0.052 pmol/min/μg"}
    ]},
    {"compound": "CCCCCCCCCCCCCC(=O)NCCCC[C@H](NC(C)=O)C(=O)Nc1ccc2c(C)cc(=O)oc2c1", "note": "[Compound 4, N—(N^α-acetyl-L-Lysine(N^ε-myristoyl))-AMC]", "values": [
      {"measurement": "Activity", "setting": "SIRT6", "value": 0.074, "unit": "pmol/min/µg"}
    ]},
    {"compound": "CC(=O)NCCCCC(NC(C)=O)C(=O)Nc1ccc2c(C)cc(=O)oc2c1", "note": "(centres unmarked) [Ac-Lys(Ac.)-AMC, Ac-Lys(ε-acetyl)-AMC, reference compound]", "values": [
      {"measurement": "Activity", "setting": "HDAC6", "value": 1.0, "unit": "pmol/min/µg"},
      {"measurement": "Intracellular desuccinylation/deacetylation of substrate", "setting": "HeLa cells", "value": "significant deacetylation"},
      {"measurement": "Activity (pmol/min/μg)", "setting": "SIRT4", "value": "Undetectable"},
      {"measurement": "Activity", "setting": "SIRT2", "value": 0.016, "unit": "pmol/min/µg"},
      {"measurement": "Activity (pmol/min/μg)", "setting": "HDAC4", "value": "Undetectable"}
    ]},
    {"compound": "CC(=O)N[C@@H](CCCCNC(=O)CCC(=O)O)C(=O)Nc1ccc2c(C)cc(=O)oc2c1", "note": "[Compound 1, N—(N^α-acetyl-L-Lysine(N^ε-succinyl))-AMC]", "values": [
      {"measurement": "Activity (pmol/min/μg)", "setting": "HDAC6", "value": "Undetectable"},
      {"measurement": "Intracellular desuccinylation/deacetylation of substrate", "setting": "HeLa cells", "value": "no significant desuccinylation"},
      {"measurement": "Activity (pmol/min/μg)", "setting": "SIRT4", "value": "Undetectable"},
      {"measurement": "Activity (pmol/min/μg)", "setting": "SIRT2", "value": "Undetectable"},
      {"measurement": "Activity (pmol/min/μg)", "setting": "SIRT6", "value": "Undetectable"},
      {"measurement": "Activity (pmol/min/μg)", "setting": "HDAC4", "value": "Undetectable"}
    ]}
  ]
}
